The results in this text go back to patent publication US5932554A (priority 1997, dated 1999).

The assay addresses cholera toxin (Vibrio cholerae serotype O1, UniProt P01556). Briefly: biochemical. In kind it is binding, V. cholerae.

Chain of cholera toxin (P01556 22-124 limits assumed): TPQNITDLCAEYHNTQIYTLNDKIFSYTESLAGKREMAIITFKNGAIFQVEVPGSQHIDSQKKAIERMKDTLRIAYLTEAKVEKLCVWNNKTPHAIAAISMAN

Consider `OC[C@H]1OC(O)[C@H](O)[C@@H](O)[C@H]1O` (stereo partly drawn) [D-galactose], for which half-maximal inhibition (IC50) required 30 mM.
